Patent US20230372425A1, “TOPICAL COMPOSITIONS CONTAINING MANUKA OIL AND PALMAROSA OIL FOR TREATING SKIN CONDITIONS” (Manuka Therapeutics Ltd., priority 2021, published 2023)

Assays:
S. aureus = test: MIC50 / MIC and MBC testing; format: cell-based, Staphylococcus aureus; details: Table 35 (Example 25); 1% ECMO or 1% ECMT, 0.05% CBD pure isolate
From the text: (§1) The MIC50 test evaluates the lowest concentration of a test substance that prevents 50% of the growth of bacteria or fungi. This is a measure of the antibacterial or anti-fungal activity of the test sample. MBC is the lowest concentration of an antibacterial agent required to kill a bacterium. Similarly, Minimum fungicidal concentration (MFC) is the lowest concentration of an antifungal agent required to kill a fungus or a yeast.
(§2) The disclosed topical compositions may be tested for MIC50 and MBC using publicly available testing criteria. For example, test samples of the desired active compound can be prepared and serially diluted to give 11 or more different concentrations covering, for example, a 1000-fold range. For example, the test samples may include 50%-0.1% of a stock test sample (e.g., stock samples disclosed in Table 1) that are combined with select bacteria and fungi and incubated over a prescribed period of time. The MIC50 is useful to determine the lowest concentration of each test sample (mixture of active materials) that inhibits 50% of the growth of the microbe as determined by measurement of OD650 nm using a Versa Max 96 well plate reader. […]
(§3) Additional data Minimum Inhibitory Concentration (MIC) data on East Cape manuka oil and β-triketones provide further context. […] MIC data is measured at the first sign of bacterial growth inhibition. […]

S. pyogenes = test: MIC50 / MIC and MBC testing; format: cell-based, Streptococcus pyogenes; details: Table 35 (Example 25); 1% ECMO or 1% ECMT, 0.05% CBD pure isolate
From the text: as §1, §2, §3

[1] = tested on: gram positive bacteria S aureus, MRSA, S pyogenes, C. acnes; test: Average MIC over gram positive bacteria (Example 25); format: cell-based
From the text: Cannabidiol (CBD) content in CBD oil can be highly variable. For this reason, pure CBD isolate was used in these examples. 1% ECMT or 1% ECMO were used in these examples. Since CBD oil contains 5-10% CBD, a concentration of 0.05% CBD pure isolate (equating to 0.5% to 1% whole CBD oil) was used in these tests.
The average MIC of CBD alone is 0.2 times that of ECMO-314. The average MIC of CBD alone is 0.1 times that of ECMT-314. […] The average MIC of ECMT alone is 0.8 times that of ECMT-314.

C. acnes = test: MIC50 / MIC and MBC testing; format: cell-based, Cutibacterium acnes
From the text: as §1
The disclosed topical compositions may be tested for MIC50 and MBC using publicly available testing criteria. For example, test samples of the desired active compound can be prepared and serially diluted to give 11 or more different concentrations covering, for example, a 1000-fold range. For example, the test samples may include 50%-0.1% of a stock test sample (e.g., stock samples disclosed in Table 1) that are combined with select bacteria and fungi and incubated over a prescribed period of time. The MIC50 is useful to determine the lowest concentration of each test sample (mixture of active materials) that inhibits 50% of the growth of the microbe as determined by measurement of OD650 nm using a Versa Max 96 well plate reader. Measurement of cell concentration can be made at several time points.
Additional data Minimum Inhibitory Concentration (MIC) data on East Cape manuka oil and β-triketones provide further context. (Source: Plant & Food). MIC data is measured at the first sign of bacterial growth inhibition. These figures can be expected to be lower than MIC50 data, though this is not always the case. Published MIC data on palmarosa oil is also included for further context, In Vitro Antimicrobial and Antioxidant Activities of Some Cymbopogon Species in Essential Oil-Bearing Grasses—The genus Cymbopogon, Khunkitti, W. (2010) Chapter 6, Edited by A. Akhila., Medicinal and Aromatic Plants—Industrial Profiles, CRC Press Taylor & Francis Group. Example stock sample solutions of active mixtures that show promising results and are suitable for MIC50 and MBC testing are listed in Table 7. […]

MRSA = test: MIC50 / MIC and MBC testing; format: cell-based, methicillin-resistant Staphylococcus aureus; details: Table 35 (Example 25); 1% ECMO or 1% ECMT, 0.05% CBD pure isolate
From the text: as §1, §2, §3

## C=C(C)[C@@H]1CCC(C)=C[C@H]1c1c(O)cc(CCCCC)cc1O [0.05% CBD isolate, cannabidiol]
S. aureus
  MIC: 0.05 % v/v
S. pyogenes
  MIC: 0.002 % v/v
[1]
  average MIC of ingredient alone, times that of ECMO-314: 0.2 times
  average MIC of ingredient alone, times that of ECMT-314: 0.1 times
[1]; Table 35 (Example 25)
  AVERAGE MIC: 0.018 % v/v
C. acnes; C. acnes considered on its own
  MIC of ingredient alone, times that of ECMT-314: 0.95 times
C. acnes; Table 24, studies with manuka oil β-triketones and CBD
  MIC50, expressed as CBD: 0.006% CBD (v/v) %
C. acnes; Table 35 (Example 25), 1% ECMO or 1% ECMT, 0.05% CBD pure isolate
  MIC: 0.006 % v/v
MRSA
  MIC: 0.0125 % v/v
